Assay results taken from PubChem BioAssay AID463203 (Broad Institute, 2010).
Calls of active or inactive are those of the source.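 Rule for the calls: active = more than half of replicate measurements showing over 20% loss of kinase signal relative to plate controls; inconclusive = some but at most half of replicates over 20% loss; inactive = no replicate over 20% signal loss.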

Biological target: Glycogen synthase kinase-3 alpha (Homo sapiens) (UniProt P49840)
Assay: concentration-response blocking of human GSK3A – biochemical, luminescence, cell-free homogeneous, retest, dose response (AID 463203)
Conditions: GSK-3 alpha enzyme, ADP-Glo luminescence, 60 min

Chain of Glycogen synthase kinase-3 alpha (Homo sapiens) (P49840 whole entry, looked up): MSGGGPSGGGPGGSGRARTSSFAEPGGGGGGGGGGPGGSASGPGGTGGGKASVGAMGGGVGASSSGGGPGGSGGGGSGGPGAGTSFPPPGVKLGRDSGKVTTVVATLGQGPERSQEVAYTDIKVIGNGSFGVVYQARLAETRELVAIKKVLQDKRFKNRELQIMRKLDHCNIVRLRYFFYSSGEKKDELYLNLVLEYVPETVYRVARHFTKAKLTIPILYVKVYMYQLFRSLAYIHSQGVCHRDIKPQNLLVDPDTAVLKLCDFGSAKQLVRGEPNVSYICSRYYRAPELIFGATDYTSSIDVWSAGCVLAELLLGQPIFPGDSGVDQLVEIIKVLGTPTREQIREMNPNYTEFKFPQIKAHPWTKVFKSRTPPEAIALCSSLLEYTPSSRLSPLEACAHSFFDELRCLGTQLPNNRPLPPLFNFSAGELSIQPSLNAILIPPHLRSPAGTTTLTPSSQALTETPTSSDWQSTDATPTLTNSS

Compound | AC50
COc1cc(NC(=O)c2nnn(Cc3ccc(SC)cc3)c2N)cc(OC)c1 | 13.6 µM
COc1ccccc1Nc1nc(NCCCCO)nc(N2CCCC2)n1 | > 30 µM (inactive)
COc1ccc(NC(=O)CSc2nnc(-c3cccc(O)c3)o2)cc1 | > 30 µM (inactive)
Cc1c(C(=O)N/N=C/c2cccnc2)nnn1-c1nonc1N | > 30 µM (inactive)
CCOC(=O)CC(C#N)c1c[nH]c2ccccc12 (stereo unspecified) | > 30 µM (inactive)
CCN1C(=O)/C(=C\c2ccco2)C(C(=O)OC)=C1C | > 30 µM (inactive)
COc1ccc(C(=O)NNC(=O)c2ccccn2)cc1 | 11.8 µM
CC(C)CC(O)C1CCN(C(=O)CCc2nnc(-c3ccc4c(c3)OCO4)o2)CC1 (stereo unspecified) | > 30 µM (inactive)
COc1ccc(-c2c(C(C)=O)c(C)nc3sc4c(=O)[nH]nnc4c23)cc1 | 30.1 µM
COc1cc(CN2CCCN(C)CC2)c([N+](=O)[O-])cc1OC | > 30 µM (inactive)
CC(=O)Nc1ccc(OC(=O)CC2SC(=O)NC2=O)cc1 (stereo unspecified) | > 30 µM (inactive)
CCOC(=O)N1CCC(N2CCN(S(=O)(=O)c3ccc4ccccc4c3)CC2)CC1 | > 30 µM (inactive)
COc1cccc2cc(C(=O)NCc3ccco3)c(=O)oc12 | > 30 µM (inactive)
N#CC(C#N)=Cc1c[nH]c(=O)c(C#N)c1Nc1ccccc1 | 9.4 µM
COC(=O)[C@H](C)NC(=O)NCc1ccccc1F | > 30 µM (inactive)
COc1ccc2nc(SCc3nc(N)nc(Nc4ccccc4)n3)[nH]c2c1 | 12.5 µM
CC(C)(C)NC(=O)CSc1ncccc1-c1nc2ccccc2[nH]1 | > 30 µM (inactive)
CN(C)Cc1c(C(=O)N/N=C/C=C/c2ccccc2)nnn1-c1nonc1N | 30 µM
CC(C)c1[nH]nc2c1C(c1ccco1)C(C#N)=C(N)O2 (stereo unspecified) | > 30 µM (inactive)
CN(C)c1nc2sc3c(c2c(=O)n1C)CC(C)(C)OC3 | > 30 µM (inactive)
O=Cc1cn(-c2ccccc2)nc1-c1ccc2c(c1)OCCO2 | > 30 µM (inactive)
COc1cccc(C2C(C(=O)OC(C)C)=C(C)Nc3ncnn32)c1 (stereo unspecified) | 15.2 µM

Compound | AC50
CCc1cc(C(=O)OC)c(NC(=O)CN2CCN(C(=O)c3ccco3)CC2)s1 | > 30 µM (inactive)
COc1ccccc1NC(=O)Nc1ccccc1Br | > 30 µM (inactive)
Clc1ccccc1/C=N/Nc1cc(N2CCOCC2)ncn1 | > 30 µM (inactive)
Fc1ccc(Nc2ncnc3ccccc23)cc1 | > 30 µM (inactive)
CCCC(NS(=O)(=O)c1ccc(OC)cc1)C(=O)O (stereo unspecified) | > 30 µM (inactive)
O=[N+]([O-])c1ccc(O)c(/C=N/n2c(-c3ccccc3)n[nH]c2=S)c1 | 26.3 µM
CCCC1=C(C(=O)OCC)C(c2ccc(O)cc2)n2ncnc2N1 (stereo unspecified) | 11.2 µM
CCCOc1cc2c(C#N)c(N3CCCC3)nc(N)c2c(N)n1 | > 30 µM (inactive)
O=C(CSc1ccc2nnc(-c3ccccn3)n2n1)N1CCN(c2ccccc2)CC1 | > 30 µM (inactive)
COc1ccc(OC)c(C(=O)c2c(C)oc3cc(Br)c(O)c(CN(C)C)c23)c1 | > 30 µM (inactive)
Fc1ccccc1CSc1nnc(-c2cccnc2)o1 | > 30 µM (inactive)
Cc1ccc(-c2nc3ncccn3c2Nc2ccc3c(c2)OCCO3)cc1 | > 30 µM (inactive)
CCc1cc(C(=O)c2ccc(OC)cc2)c(NC(=O)COCC(=O)O)s1 | > 30 µM (inactive)
O=C(O)c1ccc2c(c1)S(=O)(=O)c1cc(Cl)ccc1C2=O | 6.54 µM
Cc1ccc(S(=O)(=O)CCSc2n[nH]c(=O)n2-c2ccccc2)cc1 | 11.8 µM
COc1cccc(/C=c2\s/c(=C\C(=O)C(C)(C)C)[nH]c2=O)c1 | > 30 µM (inactive)
O=C(Nc1cccc(Cl)c1N1CCCC1)c1ccc(Br)o1 | > 30 µM (inactive)
COC(=O)c1sccc1-c1ccc(C(N)=O)o1 | 26.8 µM
COc1ccc(/C=C2\Oc3cc(OCC(=O)N4CCC[C@H]4C(=O)O)ccc3C2=O)c(OC)c1OC | > 30 µM (inactive)
COc1ccc(C(=O)C[n+]2cccc(Br)c2)cc1 | > 30 µM (inactive)
COC(=O)/C=C1/S/C(=N/NC(=O)c2ccccc2OC)NC1=O | > 30 µM (inactive)
CCOc1cccc(-c2c(C(=O)N/N=C/c3ccco3)nnn2-c2nonc2N)c1 | 10.5 µM

Compound | AC50
CCOC(=O)c1[nH]c2c(c1-c1ccccc1)C(=O)CC(c1ccc(Cl)cc1)C2 (stereo unspecified) | > 30 µM (inactive)
CCSc1cc(N2CCCC2)nc(-c2ccccc2)n1 | > 30 µM (inactive)
COc1ccc(NC(=O)Nc2ccc(F)cc2F)c(C)c1 | > 30 µM (inactive)
Clc1ccc(/C=N/Nc2ncnc3ccccc23)cc1Cl | > 30 µM (inactive)
Cc1cc(O)c2c(-c3ccccc3)cc(=O)oc2c1 | > 30 µM (inactive)
COc1cccc(Nc2nc(N)c([N+](=O)[O-])c(NCc3ccco3)n2)c1 | 5.75 µM
COc1ccc(-c2nnc(-c3ccccc3O)o2)cc1 | > 30 µM (inactive)
COc1ccc(OC)c(C2CC(=O)Nc3n[nH]c(-c4ccccc4)c32)c1 (stereo unspecified) | > 30 µM (inactive)
CCOc1nc(NCCN2CCOCC2)nc(Nc2ccc([N+](=O)[O-])cc2)n1 | > 30 µM (inactive)
CC(C)N=C(NC#N)SCc1ccc(Br)cc1 | > 30 µM (inactive)
CCOc1ccc(/C=C/C2=Cc3c(sc(NC(=O)CSc4n[nH]c(N)n4)c3C#N)C(C)(C)C2)cc1 | > 30 µM (inactive)
COc1ccc(CCNc2cc(C)nc(N)n2)cc1OC | > 30 µM (inactive)
CC(=O)c1cc(-c2ccc(F)cc2)n(CCC(=O)Nc2cc(C)[nH]n2)c1C | 11.9 µM
Fc1cccc(Nc2ncnc3sccc23)c1 | > 30 µM (inactive)
O=C(CSc1nnc(-c2ccc(O)cc2)o1)Nc1cccc(O)c1 | 21.6 µM
COc1ccc(-c2cc(C(F)(F)F)nc(SCC(=O)NCc3ccco3)n2)cc1OC | > 30 µM (inactive)
O=C(CSc1ccccc1)Nc1nnc(C2CC2)s1 | > 30 µM (inactive)
O=C1/C(=C/c2ccc3c(c2)OCO3)Oc2cc(OCC(=O)N3CCC[C@H]3C(=O)O)ccc21 | 4.35 µM
O=C(NCCCN1CCOCC1)c1ccc(Cl)cc1[N+](=O)[O-] | > 30 µM (inactive)
CCC(=NCCO)c1c(O)n(C2CCCCC2)c(=O)[nH]c1=O | 19.4 µM
Cc1cccc(C)c1OCC(O)CNC(C)(C)C (stereo unspecified) | > 30 µM (inactive)
CC(C)OC(=O)c1nnn(-c2nonc2N)c1CN1CCCCCC1 | > 30 µM (inactive)

Compound | AC50
CCOC(=O)c1sc(NC(=O)C2CCC2)cc1C | > 30 µM (inactive)
CC(C)c1nnc(NC(=O)CCN2C(=O)c3ccccc3C2=O)s1 | > 30 µM (inactive)
O=[N+]([O-])c1ccc(COc2ccccc2/C=N/O)cc1 | > 30 µM (inactive)
Cc1cc(C(C#N)c2ccccc2F)n2ncnc2n1 (stereo unspecified) | 1.87 µM
CCOC(=O)N1CCC(NC(=O)CCc2nc(C3=CCN(C)CC3)no2)CC1 | > 30 µM (inactive)
c1cncc(-c2nc3ccccc3[nH]2)c1 | > 30 µM (inactive)
COc1ccc(-n2c(O)c(C=NCCCn3ccnc3)c(=O)[nH]c2=O)cc1 | 5.43 µM
COc1ccc(CNC(=O)c2cc(COc3c(F)cccc3F)on2)cc1OC | > 30 µM (inactive)
O=C1NC(c2ccccc2)(C(F)(F)F)C(=O)N1Cc1cccnc1 (stereo unspecified) | > 30 µM (inactive)
N/C(=N\OC(=O)c1ccc2ccccc2c1)c1cccc([N+](=O)[O-])c1 | > 30 µM (inactive)
NS(=O)(=O)c1ccc(-c2ccc(/C=C3\SC(=O)NC3=O)o2)cc1 | 5.29 µM
CCOC(=O)C1=C(O)/C(=C\c2sccc2C)N=C1C | > 30 µM (inactive)
COc1ccc(C(=O)OCC(=O)Nc2c(C)n(C)n(-c3ccccc3)c2=O)cc1 | > 30 µM (inactive)
CCn1c2ccccc2c2nnc(SCC(N)=O)nc21 | 15.4 µM
Cc1c(O)ccc2c3c(c(=O)oc12)CCCC3 | 6.63 µM
Nc1c(S(=O)(=O)c2ccccc2)nnn1-c1ccccc1 | > 30 µM (inactive)
CCSc1ncnc2c1sc1nc3c(cc12)COC(C)(C)C3 | > 30 µM (inactive)
CC1(C)Cc2nc3oc4c(=S)nc[nH]c4c3cc2CO1 | 17 µM
O=C(/C(=N/N=C/c1ccc(O)c(O)c1)c1ccccc1)c1ccccc1 | > 30 µM (inactive)
Cc1ccc(O)c(C(=O)c2coc(=N)c(C(=O)NC(C)C)c2)c1 | 22.1 µM
c1ccc2c3c([nH]c2c1)-c1[nH]ncc1CC3 | 25.1 µM
Fc1ccc(/C=N/Nc2cc(N3CCOCC3)ncn2)cc1 | > 30 µM (inactive)

Compound | AC50
CCOC1(OCC)N=C(N)C2(C#N)C(c3cccc(C)c3)C12C#N (stereo unspecified) | > 30 µM (inactive)
Cc1cccc(N2CC(C(=O)Nc3nccs3)CC2=O)c1C (stereo unspecified) | > 30 µM (inactive)
Cc1nc(NCCc2ccccc2)c(C#N)c(C)c1[N+](=O)[O-] | > 30 µM (inactive)
CCOc1cc(C(c2c(C)[nH][nH]c2=O)c2c(C)[nH][nH]c2=O)ccc1O | > 30 µM (inactive)
Cc1cc(NC(=O)CSc2nc3ccccc3c(=O)n2CCCC(=O)NCc2ccco2)n[nH]1 | > 30 µM (inactive)
COc1ccc(C(=O)c2ccccc2Cl)cc1 | > 30 µM (inactive)
O=C(OC1CO[C@H]2O[C@@H]1[C@H](OC(=O)c1ccccc1)[C@H]2OC(=O)c1ccccc1)c1ccccc1 (stereo partly specified) | > 30 µM (inactive)
O=C(c1ccc2c(c1)OCO2)N1CCC2(CC1)OCCO2 | > 30 µM (inactive)
COc1ccc(OCc2nc(N)nc(Nc3ccc(C)cc3)n2)cc1 | > 30 µM (inactive)
O=C(CSc1ccc2nnc(-c3ccc(F)cc3)n2n1)N1CCCc2ccccc21 | 0.98 µM
O=[N+]([O-])c1cnccc1NC1CCCCC1 | > 30 µM (inactive)
CS(=O)(=O)Nc1ccc(-c2cc(/C=C3\SC(N)=NC3=O)c[nH]c2=O)cc1 | 7.53 µM
CCOc1ccc(S(=O)(=O)c2c(C(=O)c3ccc(C)cc3)cnc3cc4c(cc23)OCCO4)cc1 | > 30 µM (inactive)
O=C1NC(=S)N/C1=C\c1ccc(N2CCOCC2)cc1 | > 30 µM (inactive)
CN(C)c1ccc(/C=N/NC(=O)c2ccc(Cl)cc2)cc1 | > 30 µM (inactive)
CC(C)NC(=O)Nc1cccc(Cl)c1 | > 30 µM (inactive)
Clc1ccc(-c2nc3ncccn3c2Nc2ccc3c(c2)OCO3)cc1 | > 30 µM (inactive)
Cc1cccc(C)c1OC(=O)Cc1ccccc1[N+](=O)[O-] | > 30 µM (inactive)
